Reference: ChEMBL document CHEMBL1201862, “PubChem BioAssay data set” (2004)
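Cultured in 96-well plates, cells were exposed to test compound for 48 hours across five concentrations. Abbreviation: GI50, concentration required for 50% inhibition of growth.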 Active and inactive are the calls of the source. Rule as the data show it: active = GI50 up to about 1.1 µM and inactive = higher.

Assays:
Test in all cases: NCI anticancer screen, dose series, 48 h
UO-31 = test system: UO-31
U-251 = test system: U-251
RXF 393 = test system: RXF 393
HL-60 = test system: HL-60
EKVX = test system: EKVX
MDA-MB-231 = test system: MDA-MB-231
SF-295 = test system: SF-295
MDA-N = test system: MDA-N
Malme-3M = test system: Malme-3M
HT-29 = test system: HT-29
SNB-19 = test system: SNB-19
COLO 205 = test system: COLO 205
OVCAR-5 = test system: OVCAR-5
K562 = test system: K562
HCT-15 = test system: HCT-15
PC-3 = test system: PC-3
IGROV-1 = test system: IGROV-1
MOLT-4 = test system: MOLT-4
BT-549 = test system: BT-549
NCI-H226 = test system: NCI-H226

| SMILES | GI50 (UO-31) | GI50 (U-251) | GI50 (RXF 393) | GI50 (HL-60) | GI50 (EKVX) | GI50 (MDA-MB-231) | GI50 (SF-295) | GI50 (MDA-N) | GI50 (Malme-3M) | GI50 (HT-29) | GI50 (SNB-19) | GI50 (COLO 205) | GI50 (OVCAR-5) | GI50 (K562) | GI50 (HCT-15) [µM] | GI50 (PC-3) | GI50 (IGROV-1) | GI50 (MOLT-4) | GI50 (BT-549) | GI50 (NCI-H226) |
| --- | --- | --- | --- | --- | --- | --- | --- | --- | --- | --- | --- | --- | --- | --- | --- | --- | --- | --- | --- | --- |
| COCN1C(=O)[C@@H]2C[C@@H](O)CN2C(=O)c2ccccc21 | > 100 µM (inactive) | > 100 µM (inactive) | > 100 µM (inactive) | 60.5 µM (inactive) | > 100 µM (inactive) | > 100 µM (inactive) | > 100 µM (inactive) | > 100 µM (inactive) | > 100 µM (inactive) | > 100 µM (inactive) | > 100 µM (inactive) | > 100 µM (inactive) | > 100 µM (inactive) | > 100 µM (inactive) | > 100 | > 100 µM (inactive) | > 100 µM (inactive) | 61.7 µM (inactive) | > 100 µM (inactive) | – |
| CCOC(=O)/C(C#N)=N\Nc1ccc(-n2c(C)nc3ccccc3c2=O)cc1 | 50.4 µM (inactive) | > 100 µM (inactive) | – | 26.5 µM (inactive) | 53.2 µM (inactive) | > 100 µM (inactive) | 56.9 µM (inactive) | 47.3 µM (inactive) | – | > 100 µM (inactive) | > 100 µM (inactive) | 78.3 µM (inactive) | > 100 µM (inactive) | 49.1 µM (inactive) | 62.1 | 75.3 µM (inactive) | 51.2 µM (inactive) | 23.7 µM (inactive) | 73.6 µM (inactive) | 24.5 µM (inactive) |
| OCCN(C1=NCCN1)/[N+](=C\c1ccccn1)[CH-]c1ccccn1 | > 100 µM (inactive) | > 100 µM (inactive) | – | > 100 µM (inactive) | > 100 µM (inactive) | > 100 µM (inactive) | > 100 µM (inactive) | > 100 µM (inactive) | > 100 µM (inactive) | > 100 µM (inactive) | – | > 100 µM (inactive) | > 100 µM (inactive) | > 100 µM (inactive) | > 100 | > 100 µM (inactive) | > 100 µM (inactive) | > 100 µM (inactive) | > 100 µM (inactive) | > 100 µM (inactive) |
| N#CC1Cc2cc3c(cc21)OCO3 (centres undefined) | > 100 µM (inactive) | > 100 µM (inactive) | – | – | > 100 µM (inactive) | > 100 µM (inactive) | > 100 µM (inactive) | > 100 µM (inactive) | > 100 µM (inactive) | > 100 µM (inactive) | > 100 µM (inactive) | > 100 µM (inactive) | > 100 µM (inactive) | > 100 µM (inactive) | > 100 | > 100 µM (inactive) | > 100 µM (inactive) | > 100 µM (inactive) | > 100 µM (inactive) | > 100 µM (inactive) |
| CNC(=O)OC1/C(C)=C\C(C)C(O)C(OC)CC(C)CC2=C(OC)C(=O)C=C(C2=O)N(C)C(=O)/C(C)=C/C=C\C1OC (centres undefined) | 7.69 µM (inactive) | 15.2 µM (inactive) | 2.25 µM (inactive) | – | 11.9 µM (inactive) | 2.05 µM (inactive) | 24.4 µM (inactive) | 1.33 µM (inactive) | 5.69 µM (inactive) | 1.19 µM (inactive) | 36.2 µM (inactive) | 0.424 µM (active) | 13.1 µM (inactive) | 0.578 µM (active) | 6.76 | 11.5 µM (inactive) | 10.8 µM (inactive) | 0.891 µM (active) | 5 µM (inactive) | 19.5 µM (inactive) |
| C1=N\CCOCC/N=C/c2ccccc2OCc2cccc(n2)COc2ccccc2/1 | 7.98 µM (inactive) | 6.04 µM (inactive) | 9.59 µM (inactive) | 5.07 µM (inactive) | 16.6 µM (inactive) | 8.93 µM (inactive) | 4.02 µM (inactive) | 0.942 µM (active) | 4.53 µM (inactive) | 5.22 µM (inactive) | 9.51 µM (inactive) | 13 µM (inactive) | 5.26 µM (inactive) | 2.38 µM (inactive) | 6.46 | 8.93 µM (inactive) | 6.3 µM (inactive) | 4.91 µM (inactive) | 6.76 µM (inactive) | – |
| NCCSCCC(=O)O | > 100 µM (inactive) | > 44 µM (inactive) | > 66.7 µM (inactive) | – | > 100 µM (inactive) | > 100 µM (inactive) | > 48.4 µM (inactive) | > 81.7 µM (inactive) | > 100 µM (inactive) | > 84.1 µM (inactive) | > 94.8 µM (inactive) | 30.4 µM (inactive) | > 100 µM (inactive) | 31.8 µM (inactive) | > 59 | > 82 µM (inactive) | > 100 µM (inactive) | 29.7 µM (inactive) | > 100 µM (inactive) | > 100 µM (inactive) |
| O=c1[nH]nc(Cc2ccccc2)n1/N=C/c1c(O)ccc2ccccc12 | 36.1 µM (inactive) | 18.2 µM (inactive) | 22.3 µM (inactive) | – | 20.7 µM (inactive) | 19.7 µM (inactive) | 26.9 µM (inactive) | 54.6 µM (inactive) | 20.9 µM (inactive) | 28.4 µM (inactive) | 18.4 µM (inactive) | 47.4 µM (inactive) | – | 23.2 µM (inactive) | 51.6 | 22.9 µM (inactive) | 21.2 µM (inactive) | 26.4 µM (inactive) | 82.4 µM (inactive) | 24.5 µM (inactive) |
| Cn1c2ccccc2c(=O)c2cccc(C(=O)NC(CCCNC(=N)N)C(=O)O)c21 (centres undefined) | > 100 µM (inactive) | > 100 µM (inactive) | – | – | > 100 µM (inactive) | > 100 µM (inactive) | > 100 µM (inactive) | > 100 µM (inactive) | > 100 µM (inactive) | > 100 µM (inactive) | > 100 µM (inactive) | > 100 µM (inactive) | > 100 µM (inactive) | > 100 µM (inactive) | > 100 | > 100 µM (inactive) | 30.1 µM (inactive) | > 100 µM (inactive) | > 100 µM (inactive) | > 100 µM (inactive) |
| CC1(C)OC(=C(C#N)C#N)C(C#N)=C1/C=C/c1ccncc1 | 3.24 µM (inactive) | 1.85 µM (inactive) | 2.29 µM (inactive) | – | 2.32 µM (inactive) | 2.16 µM (inactive) | 2.24 µM (inactive) | 2.58 µM (inactive) | 2.61 µM (inactive) | 2.11 µM (inactive) | 2.59 µM (inactive) | 1.88 µM (inactive) | 2.89 µM (inactive) | 3.14 µM (inactive) | 2.03 | 2.29 µM (inactive) | 2.17 µM (inactive) | 2.03 µM (inactive) | 1.65 µM (inactive) | 2.43 µM (inactive) |
| CC(=O)Nc1c(C)cc2c(nc3n2CCC3O)c1[N+](=O)[O-] (centres undefined) | > 100 µM (inactive) | > 100 µM (inactive) | – | > 100 µM (inactive) | > 100 µM (inactive) | > 100 µM (inactive) | > 100 µM (inactive) | > 100 µM (inactive) | > 100 µM (inactive) | > 100 µM (inactive) | > 100 µM (inactive) | > 100 µM (inactive) | > 100 µM (inactive) | > 100 µM (inactive) | > 100 | > 100 µM (inactive) | > 100 µM (inactive) | > 100 µM (inactive) | > 100 µM (inactive) | > 100 µM (inactive) |
| C=CCn1cnc2c(O)nc(Nc3ccccc3)nc21 | 50.5 µM (inactive) | > 100 µM (inactive) | – | > 100 µM (inactive) | > 100 µM (inactive) | > 100 µM (inactive) | > 100 µM (inactive) | > 100 µM (inactive) | > 100 µM (inactive) | > 100 µM (inactive) | > 100 µM (inactive) | > 100 µM (inactive) | > 100 µM (inactive) | – | > 100 | > 100 µM (inactive) | > 100 µM (inactive) | 12.8 µM (inactive) | > 100 µM (inactive) | > 100 µM (inactive) |
| CC(=O)c1ccc(Nc2c3c(nc4ccccc24)CCCC3)cc1 | 5.58 µM (inactive) | 19.1 µM (inactive) | 20.5 µM (inactive) | 2.73 µM (inactive) | 28 µM (inactive) | 19.6 µM (inactive) | 11.2 µM (inactive) | 2.72 µM (inactive) | – | 10.2 µM (inactive) | 20.2 µM (inactive) | 11.7 µM (inactive) | 13.5 µM (inactive) | 16.4 µM (inactive) | 13.7 | 41.1 µM (inactive) | 3.79 µM (inactive) | 9.59 µM (inactive) | 9.79 µM (inactive) | 14 µM (inactive) |
| COc1ccc(/C=C2\CCS(=O)(=O)c3ccccc3C2=O)cc1OC | 31 µM (inactive) | 31.9 µM (inactive) | 54.8 µM (inactive) | 17.4 µM (inactive) | 38.2 µM (inactive) | 30.8 µM (inactive) | 43.6 µM (inactive) | 45.4 µM (inactive) | – | 36.7 µM (inactive) | 42.8 µM (inactive) | 48.8 µM (inactive) | 68.1 µM (inactive) | > 100 µM (inactive) | 11.9 | 27.5 µM (inactive) | 7.91 µM (inactive) | 46.2 µM (inactive) | 16.6 µM (inactive) | 29.1 µM (inactive) |
| O=C1CC(n2cccc2)c2cc(Br)sc21 (centres undefined) | > 100 µM (inactive) | > 100 µM (inactive) | – | 14.5 µM (inactive) | > 100 µM (inactive) | > 100 µM (inactive) | > 100 µM (inactive) | 55.6 µM (inactive) | > 100 µM (inactive) | > 100 µM (inactive) | > 100 µM (inactive) | > 100 µM (inactive) | > 100 µM (inactive) | > 100 µM (inactive) | > 100 | > 100 µM (inactive) | > 100 µM (inactive) | 16.1 µM (inactive) | > 100 µM (inactive) | > 100 µM (inactive) |
